Experiment [1] has as its target VIM-1 (Pseudomonas aeruginosa (strain ATCC 15692 / DSM 22644 / CIP 104116 / JCM 14847 / LMG 12228 / 1C / PRS 101 / PAO1), UniProt A0A0F7KYQ8). In words: Enzyme activity: determination of IC50, fluorescence assay with CCF2-FA substrate (VIM-1). Particulars: CCF2-FA substrate. In kind it is biochemical.
Experiment [2] concerns the target IMP-1 (Serratia marcescens, UniProt P52699). In words: biochemical. In kind it is biochemical. As to conditions: IMP-1 enzyme, CCF2-FA substrate; read-out: IMP-1 IC50.
Experiment [3] has as its system Escherichia coli expressing NDM-1 (CLB30016). In words: Antibiotic potentiation activity: synergistic concentration (MITC95) with imipenem, OD600 growth. In kind it is cell-based. As to conditions: (CLB30016, NDM-1), 95% growth inhibition. In outline:
(§1)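 CLB30005 was precultured on Mueller Hinton agar with 8 ug/ml imipenem, the other strains on trypticase soy agar with 5% sheep blood, overnight at 35 °C. Saline suspensions diluted 1:100 in 1.1× CAMHB received compound and 4 μg/ml imipenem, then 22–24 h at 35 °C before absorbance reading.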

For experiment [4], the system named is Serratia marcescens expressing IMP-1 (CL5741). The experiment is described as above. In kind it is cell-based. Particulars: Serratia marcescens CL5741 (IMP-1), 95% growth inhibition. In outline:
as §1

Experiment [5] has as its system Klebsiella pneumoniae expressing VIM-1 (IHMA599644). The experiment is described as above. In kind it is cell-based. Particulars: Klebsiella pneumoniae IHMA599644 (VIM-1), 95% growth inhibition. In outline: as §1
Experiment [6] addresses NDM-1 (Klebsiella pneumoniae, UniProt C7C422). In words: biochemical. In kind it is biochemical. As to conditions: NDM-1 enzyme, CCF2-FA substrate; read-out: NDM-1 IC50.
Where [7] appears, read: VIM-1 enzyme, read-out: VIM-1 IC50.

The structures appear in SMILES notation. pIC50: −log10 of the molar value. Read-outs that look alike come from different tables or passages of the source.

Sequence of IMP-1 (P52699 whole entry, looked up): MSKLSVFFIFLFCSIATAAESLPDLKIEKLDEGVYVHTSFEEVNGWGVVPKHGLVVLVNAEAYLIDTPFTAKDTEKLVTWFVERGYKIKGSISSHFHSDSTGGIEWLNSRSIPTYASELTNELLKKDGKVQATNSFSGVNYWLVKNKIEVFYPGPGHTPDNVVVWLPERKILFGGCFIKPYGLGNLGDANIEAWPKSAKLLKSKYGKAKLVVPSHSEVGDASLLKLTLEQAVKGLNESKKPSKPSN
Sequence of NDM-1 (C7C422 whole entry, looked up, species assumed): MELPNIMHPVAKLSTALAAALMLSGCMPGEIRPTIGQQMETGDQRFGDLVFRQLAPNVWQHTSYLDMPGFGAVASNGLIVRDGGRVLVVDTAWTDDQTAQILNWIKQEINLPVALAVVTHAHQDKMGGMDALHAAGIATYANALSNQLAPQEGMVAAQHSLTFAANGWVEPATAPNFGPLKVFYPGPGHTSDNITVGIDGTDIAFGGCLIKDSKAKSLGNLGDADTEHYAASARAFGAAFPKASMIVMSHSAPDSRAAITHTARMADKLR

For `NS(=O)(=O)c1c(CCCCCO)ccc(CCCCCO)c1-c1nn[nH]n1` [Example 542, 3,6-Bis(5-hydroxypentyl)-2-(2H-tetrazol-5-yl)benzenesulfonamide], the pIC50 (commonly the negative decadic logarithm of the IC50, by convention in mol/L) in experiment [1] (setting [7]) was 8.19; in experiment [2] it was 8.10; in experiment [6] it was 7.94. Also, the “Escherichia coli MITC95” value in experiment [3] was found to be 25 µM. For the same compound, in experiment [4], the “Serratia marcescens MITC95” value amounted to 6.25 µM. Besides, the “Klebsiella pneumoniae MITC95” value in experiment [5] was determined as 100 µM.

Regarding `NS(=O)(=O)c1c(CCCCCCO)ccc(CCCCCCO)c1-c1nn[nH]n1` [Example 543, 3,6-Bis(6-hydroxyhexyl)-2-(2H-tetrazol-5-yl)benzenesulfonamide], the pIC50 is 8.49 in experiment [1] (setting [7]), 8.94 in experiment [2] and 8.58 in experiment [6]. The “Escherichia coli MITC95” value in experiment [3] worked out at 50 µM. For the same compound, in experiment [4], the “Serratia marcescens MITC95” value is 12.5 µM. In addition, the “Klebsiella pneumoniae MITC95” value in experiment [5] is above 200 µM.

`Nc1nc2c(-c3ccc(CC4CNC4)c(S(N)(=O)=O)c3-c3nn[nH]n3)cccc2s1` [Example 545, 3-(2-aminobenzo[d]thiazol-4-yl)-6-(azetidin-3-ylmethyl)-2-(2H-tetrazol-5-yl)benzenesulfonamide]: the negative-log IC50 (pIC50) in experiment [1] (VIM-1 IC50, VIM-1 enzyme) is 8.11; in experiment [2], 7.66; in experiment [6] it was 8.56. Also, in experiment [3], the “Escherichia coli MITC95” value stood at 0.7813 µM. Further, the “Serratia marcescens MITC95” value in experiment [4] turned out to be 3.125 µM. Moreover, the “Klebsiella pneumoniae MITC95” value in experiment [5] amounted to 3.125 µM.

Regarding `NS(=O)(=O)c1c(CC2CNC2)ccc(-c2cnc3ccccn23)c1-c1nn[nH]n1` [Example 546, 6-(azetidin-3-ylmethyl)-3-(imidazo[1,2-a]pyridin-3-yl)-2-(2H-tetrazol-5-yl)benzenesulfonamide], the pIC50 in experiment [1] (setting [7]) was 7.41; in experiment [2], 6.75; in experiment [6] it was 7.47. Besides, in experiment [3], the “Escherichia coli MITC95” value amounted to 1.563 µM. Also, the “Serratia marcescens MITC95” value in experiment [4] came to 12.5 µM. The “Klebsiella pneumoniae MITC95” value in experiment [5] stood at 12.5 µM.

`N[C@]1(c2ccc(-c3ccc(C(F)(F)F)c(S(N)(=O)=O)c3-c3nn[nH]n3)cc2)CCNC1` [Example 547, 3-[4-[(3S)-3-aminopyrrolidin-3-yl]phenyl]-2-(2H-tetrazol-5-yl)-6-(trifluoromethyl)benzenesulfonamide]: the pIC50 is 8.93 in experiment [1] (setting [7]), 8.04 in experiment [2] and 8.03 in experiment [6]. Further, the “Escherichia coli MITC95” value in experiment [3] is 6.25 µM. Also, the “Serratia marcescens MITC95” value in experiment [4] was found to be 3.125 µM. In addition, the “Klebsiella pneumoniae MITC95” value in experiment [5] is 6.25 µM.

For `N[C@@]1(c2ccc(-c3ccc(C(F)(F)F)c(S(N)(=O)=O)c3-c3nn[nH]n3)cc2)CCNC1` [Example 548, 3-[4-[(3R)-3-aminopyrrolidin-3-yl]phenyl]-2-(2H-tetrazol-5-yl)-6-(trifluoromethyl)benzenesulfonamide], the results for the pIC50 in experiment [1] (setting [7]), in experiment [2] and in experiment [6] were 9.29, 7.98 and 8.12, respectively. Also, the “Escherichia coli MITC95” value in experiment [3] stood at 3.125 µM. Moreover, the “Serratia marcescens MITC95” value in experiment [4] came to 3.125 µM. Moreover, the “Klebsiella pneumoniae MITC95” value in experiment [5] is 1.563 µM.

`Nc1nc2ccc(-c3ccc(C(F)(F)F)c(S(N)(=O)=O)c3-c3nnn[nH]3)cc2s1` [Example 549, 3-(2-amino-1,3-benzothiazol-6-yl)-2-(1H-tetrazol-5-yl)-6-(trifluoromethyl)benzenesulfonamide]: the pIC50 in experiment [1] (VIM-1 IC50, VIM-1 enzyme) is 10.20; in experiment [2], 9.33; in experiment [6], 9.59. In addition, the “Escherichia coli MITC95” value in experiment [3] was found to be 1.563 µM. The “Serratia marcescens MITC95” value in experiment [4] amounted to 3.125 µM. In experiment [5], the “Klebsiella pneumoniae MITC95” value was found to be 6.25 µM.

As to `Nc1nc2cc(-c3ccc(C(F)(F)F)c(S(N)(=O)=O)c3-c3nnn[nH]3)ccc2s1` [Example 550, 3-(2-amino-1,3-benzothiazol-5-yl)-2-(1H-tetrazol-5-yl)-6-(trifluoromethyl)benzenesulfonamide], the pIC50 is 9.50 in experiment [1] (setting [7]), 8.60 in experiment [2] and 9.12 in experiment [6]. Moreover, the “Escherichia coli MITC95” value in experiment [3] was found to be 3.125 µM. Besides, the “Serratia marcescens MITC95” value in experiment [4] came to 3.125 µM. The “Klebsiella pneumoniae MITC95” value in experiment [5] is 12.5 µM.

In the case of `Nc1nc2cccc(-c3ccc(C(F)(F)F)c(S(N)(=O)=O)c3-c3nnn[nH]3)c2[nH]1` [Example 551, 3-(2-amino-3H-benzimidazol-4-yl)-2-(1H-tetrazol-5-yl)-6-(trifluoromethyl)benzenesulfonamide], the negative logarithm of the IC50 (pIC50) is 9.58 in experiment [1] (setting [7]), 8.42 in experiment [2] and 9.85 in experiment [6]. The “Escherichia coli MITC95” value in experiment [3] turned out to be 0.3906 µM. In experiment [4], the “Serratia marcescens MITC95” value came to 0.7813 µM. Also, the “Klebsiella pneumoniae MITC95” value in experiment [5] was found to be 1.563 µM.

For `Nc1nc2ccc(-c3ccc(C(F)(F)F)c(S(N)(=O)=O)c3-c3nnn[nH]3)cc2[nH]1` [Example 552, 3-(2-amino-3H-benzimidazol-5-yl)-2-(1H-tetrazol-5-yl)-6-(trifluoromethyl)benzenesulfonamide], the pIC50 in experiment [1] (VIM-1 IC50, VIM-1 enzyme) was 9.58; in experiment [2] it was 8.14; in experiment [6] it was 8.88. Also, in experiment [3], the “Escherichia coli MITC95” value was 0.3906 µM. Also, the “Serratia marcescens MITC95” value in experiment [4] was 1.563 µM. Further, the “Klebsiella pneumoniae MITC95” value in experiment [5] was 1.563 µM.

As to `Nc1nc2cccc(-c3ccc(C(F)(F)F)c(S(N)(=O)=O)c3-c3nnn[nH]3)c2s1` [Example 553, 3-(2-amino-1,3-benzothiazol-7-yl)-2-(1H-tetrazol-5-yl)-6-(trifluoromethyl)benzenesulfonamide], the pIC50 is 10.20 in experiment [1] (setting [7]), 9.02 in experiment [2] and 10.30 in experiment [6]. The “Escherichia coli MITC95” value in experiment [3] was 3.125 µM. In experiment [4], the “Serratia marcescens MITC95” value came to 3.125 µM. For the same compound, in experiment [5], the “Klebsiella pneumoniae MITC95” value turned out to be 3.125 µM.

Regarding `Nc1ccc2cccc(-c3ccc(C(F)(F)F)c(S(N)(=O)=O)c3-c3nn[nH]n3)c2n1` [Example 554, 3-(2-amino-8-quinolyl)-2-(2H-tetrazol-5-yl)-6-(trifluoromethyl)benzenesulfonamide], the pIC50 in experiment [1] (setting [7]) is 9.44; in experiment [2], 9.09; in experiment [6], 9.94. In addition, the “Escherichia coli MITC95” value in experiment [3] stood at 3.125 µM. Also, the “Serratia marcescens MITC95” value in experiment [4] is 1.563 µM. In addition, the “Klebsiella pneumoniae MITC95” value in experiment [5] is 3.125 µM.

`Nc1ncc2c(-c3ccc(C(F)(F)F)c(S(N)(=O)=O)c3-c3nn[nH]n3)cccc2n1` [Example 556, 3-(2-aminoquinazolin-5-yl)-2-(2H-tetrazol-5-yl)-6-(trifluoromethyl)benzenesulfonamide]: the results for the pIC50 in experiment [1] (setting [7]), in experiment [2] and in experiment [6] were 9.91, 8.53 and 9.90, respectively. In addition, the “Escherichia coli MITC95” value in experiment [3] came out at 25 µM. Besides, the “Serratia marcescens MITC95” value in experiment [4] is 12.5 µM. For the same compound, the “Klebsiella pneumoniae MITC95” value in experiment [5] stood at 12.5 µM.

In the case of `Nc1ncc2cccc(-c3ccc(C(F)(F)F)c(S(N)(=O)=O)c3-c3nn[nH]n3)c2n1` [Example 558, 3-(2-aminoquinazolin-8-yl)-2-(2H-tetrazol-5-yl)-6-(trifluoromethyl)benzenesulfonamide], the pIC50 in experiment [1] (setting [7]) is 9.75; in experiment [2], 8.71; in experiment [6], 9.84. Besides, the “Escherichia coli MITC95” value in experiment [3] amounted to 6.25 µM. Moreover, in experiment [4], the “Serratia marcescens MITC95” value was determined as 6.25 µM. Besides, in experiment [5], the “Klebsiella pneumoniae MITC95” value was 6.25 µM.

As for `NS(=O)(=O)c1c(C(F)(F)F)ccc(-c2ccc(-c3c[nH]c(O)n3)cc2)c1-c1nnn[nH]1.O=C(O)C(F)(F)F` [Example 559, 3-[4-(2-hydroxy-1H-imidazol-4-yl)phenyl]-2-(1H-tetrazol-5-yl)-6-(trifluoromethyl)benzenesulfonamide], the values for the pIC50 in experiment [1] (setting [7]), in experiment [2] and in experiment [6] were 9.67, 9.27 and 9.36, respectively. Besides, in experiment [3], the “Escherichia coli MITC95” value stood at 12.5 µM. Also, the “Serratia marcescens MITC95” value in experiment [4] stood at 6.25 µM. Besides, in experiment [5], the “Klebsiella pneumoniae MITC95” value was found to be 12.5 µM.

Turning to `Cn1c(-c2ccc(-c3ccc(C(F)(F)F)c(S(N)(=O)=O)c3-c3nnn[nH]3)cc2)cnc1N.O=C(O)C(F)(F)F` [Example 560, 3-[4-(2-amino-3-methyl-imidazol-4-yl)phenyl]-2-(1H-tetrazol-5-yl)-6-(trifluoromethyl)benzenesulfonamide], the results for the pIC50 in experiment [1] (setting [7]), in experiment [2] and in experiment [6] were 9.67, 9.05 and 9.14, respectively. In experiment [3], the “Escherichia coli MITC95” value came out at 6.25 µM. Further, the “Serratia marcescens MITC95” value in experiment [4] was 3.125 µM. Besides, the “Klebsiella pneumoniae MITC95” value in experiment [5] came to 6.25 µM.

As to `Nc1nc2c(-c3ccc(C(F)(F)F)c(S(N)(=O)=O)c3-c3nnn[nH]3)cccc2s1` [Example 561, 3-(2-aminobenzo[d]thiazol-4-yl)-2-(1H-tetrazol-5-yl)-6-(trifluoromethyl)benzenesulfonamide], the pIC50 in experiment [1] (setting [7]) is 9.36; in experiment [2], 9.00; in experiment [6] it was 9.81. In addition, in experiment [3], the “Escherichia coli MITC95” value amounted to 0.668 µM. In addition, the “Serratia marcescens MITC95” value in experiment [4] was determined as 0.09375 µM. Further, in experiment [5], the “Klebsiella pneumoniae MITC95” value stood at 2.563 µM.

(Values after patent US9708336B2, “Metallo-beta-lactamase inhibitors” (priority 2014, dated 2017).)
